Measured values reported in ChEMBL document CHEMBL4673279, “Aromatic Ring Substituted Aaptamine Analogues as Potential Cytotoxic Agents against Extranodal Natural Killer/T-Cell Lymphoma” (J Nat Prod, 2020).

How the values were obtained:
[1] = test system: NB-4; experiment: Cytotoxicity against human NB4 cells assessed as reduction in cell viability after 48 hrs by CCK8 assay; assay type: functional, cell-based; conditions: NB-4, 48 h
[2] = test system: MCF7; experiment: Cytotoxicity against human MCF7 cells assessed as reduction in cell viability after 48 hrs by CCK8 assay; assay type: functional, cell-based; conditions: MCF7, 48 h
[3] = (§1) Cytotoxicity against human SNK6 cells assessed as reduction in cell viability after 48 hrs by CCK8 assay; assay type: functional, cell-based; conditions: SNK6, 48 h
[4] = test system: HeLa; experiment: Cytotoxicity against human HeLa cells assessed as reduction in cell viability after 48 hrs by CCK8 assay; assay type: functional, cell-based
[5] = test system: GES1; experiment: Cytotoxicity against human GES1 cells assessed as reduction in cell viability after 48 hrs by CCK8 assay; assay type: cell-based; conditions: GES1, 48 h
[6] = Cytotoxicity against human HEK293T cells assessed as cell viability at 20 uM after 48 hrs by CCK8 assay relative to control; assay type: cell-based, HEK-293T; conditions: read-out: Activity
[7] = test system: SNK6; experiment: as §1; assay type: functional, cell-based
[8] = test system: L02; experiment: Cytotoxicity against human L02 cells assessed as reduction in cell viability after 48 hrs by CCK8 assay; assay type: cell-based; conditions: L02, 48 h
[9] = Cytotoxicity against human NK92 cells assessed as cell viability at 20 uM after 48 hrs by CCK8 assay relative to control; assay type: cell-based; conditions: read-out: Activity
[10] = test system: SNT8; experiment: Cytotoxicity against human SNT8 cells assessed as reduction in cell viability after 48 hrs by CCK8 assay; assay type: functional, cell-based
[11] = test system: Raji; experiment: Cytotoxicity against human Raji cells assessed as reduction in cell viability after 48 hrs by CCK8 assay; assay type: functional, cell-based
[12] = (§2) Cytotoxicity against human WSUDLCL2 cells assessed as reduction in cell viability after 48 hrs by CCK8 assay; assay type: functional, cell-based; conditions: WSUDLCL2, 48 h
[13] = test system: WSUDLCL2; experiment: as §2; assay type: functional, cell-based
[14] = test system: U-937; experiment: Cytotoxicity against human U937 cells assessed as reduction in cell viability after 48 hrs by CCK8 assay; assay type: functional, cell-based
[15] = test system: SUD4; experiment: Cytotoxicity against human SU-DHL-4 cells assessed as reduction in cell viability after 48 hrs by CCK8 assay; assay type: functional, cell-based
[16] = test system: Ramos; experiment: Cytotoxicity against human Ramos cells assessed as reduction in cell viability after 48 hrs by CCK8 assay; assay type: functional, cell-based

SMILES	IC50 [1] [µM]	IC50 [2] [µM]	IC50 [3] [µM]	IC50 [4] [µM]	also measured
COc1c(OC)c2c3c(nccc3c1-c1cccc(C(F)(F)F)c1)C=CN2	> 20	3.2	4.3	8.9	
COc1c(OC)c2c3c(nccc3c1-c1cccc(C(F)(F)F)c1)C(c1cccc(C(F)(F)F)c1)=CN2	7.1	> 20	8.6	18	
COc1c(OC)c2c3c(nccc3c1-c1cccc(C)c1)C(c1cccc(C)c1)=CN2	2.1	10	0.6	7.2	IC50 [5]: 2 µM; viability at 48 h, 20 µM [6]: ≤ 90%; Activity [7]: Dose-dependent effect; IC50 [8]: 3.4 µM; viability at 48 h, 20 µM [9]: ≤ 90%; Activity [10]: Dose-dependent effect; Activity [11]: Dose-dependent effect; IC50 [11]: 1.4 µM; IC50 [12]: 1.3 µM; Activity [13]: Dose-dependent effect; Activity [14]: Dose-dependent effect; IC50 ([14]; U-937, 48 h): 2.8 µM; Activity [15]: Dose-dependent effect; IC50 ([15]; SU-DHL-4, 48 h): 0.8 µM; Activity [16]: Dose-dependent effect; IC50 [16]: 1.4 µM
COc1c(OC)c2c3c(nccc3c1-c1ccccc1)C=CN2	> 20	> 20	> 20	> 20	
COc1c(OC)c2c3c(nccc3c1-c1ccc(F)cc1)C(c1ccc(F)cc1)=CN2	19	> 20	> 20	8.7	
COc1c(OC)c2c3c(nccc3c1-c1cccc(F)c1)C(c1cccc(F)c1)=CN2	> 20	20	10	17	
COc1c(OC)c2c3c(nccc3c1-c1cc(C)cc(C)c1)C(c1cc(C)cc(C)c1)=CN2	7.9	8.3	3.1	5.4	
CCc1ccc(C2=CNc3c(OC)c(OC)cc4ccnc2c34)cc1	> 20	> 20	4.9	11	
COc1cc2ccnc3c2c(c1OC)NC=C3c1cccc(F)c1	> 20	> 20	> 20	> 20	
COc1ccc(-c2c(OC)c(OC)c3c4c(nccc24)C=CN3)cc1	> 20	9.8	1.7	11	
COc1cc2ccnc3c2c(c1OC)NC=C3 [AAPTAMINE]	> 20	> 20	> 20	19	
COc1cc2ccnc3c2c(c1OC)NC=C3c1cccc(O)c1	> 20	> 20	> 20	> 20	
COc1ccc(C2=CNc3c(OC)c(OC)cc4ccnc2c34)cc1	> 20	> 20	> 20	> 20	
CCc1ccc(C2=CNc3c(OC)c(OC)c(-c4ccc(CC)cc4)c4ccnc2c34)cc1	16	18	4.2	17	
COc1c(OC)c2c3c(nccc3c1-c1cccc(C(C)C)c1)C(c1cccc(C(C)C)c1)=CN2	> 20	> 20	> 20	> 20	
COc1cc2ccnc3c2c(c1OC)NC=C3c1cccc(C(F)(F)F)c1	> 20	17	8.8	15	

SMILES	IC50 [1] [µM]	IC50 [2] [µM]	IC50 [3] [µM]	IC50 [4] [µM]	also measured
COc1cc2ccnc3c2c(c1OC)NC=C3c1cccc(C)c1	> 20	> 20	> 20	12	
COc1cc2ccnc3c2c(c1OC)NC=C3c1cccc(C(C)C)c1	17	> 20	8.4	11	
COc1c(OC)c2c3c(nccc3c1-c1cccc3ccccc13)C(c1cccc3ccccc13)=CN2	> 20	> 20	> 20	8.2	
COc1c(OC)c2c3c(nccc3c1-c1ccc(C)cc1)C(c1ccc(C)cc1)=CN2	18	> 20	11	12	
COc1c(OC)c2c3c(nccc3c1-c1ccc(Cl)cc1)C=CN2	> 20	9.4	7.7	1.9	
COc1cc2ccnc3c2c(c1OC)NC=C3c1ccc(Cl)cc1	> 20	> 20	> 20	> 20	
COc1cc2ccnc3c2c(c1OC)NC=C3c1cccc2ccccc12	> 20	> 20	> 20	4	
COc1c(OC)c2c3c(nccc3c1-c1ccc(C(F)(F)F)cc1)C(c1ccc(C(F)(F)F)cc1)=CN2	> 20	> 20	9.4	> 20	
COc1c(OC)c2c3c(nccc3c1-c1cccc(C(C)C)c1)C=CN2	> 20	> 20	> 20	> 20	
COc1c(OC)c2c3c(nccc3c1-c1ccc(Cl)cc1)C(c1ccc(Cl)cc1)=CN2	17	> 20	8.4	11	
COc1cc2ccnc3c2c(c1OC)NC=C3c1ccccc1	> 20	12	8.9	17	
COc1c(OC)c2c3c(nccc3c1-c1ccc(C(F)(F)F)cc1)C=CN2	> 20	11	> 20	11	
COc1c(OC)c2c3c(nccc3c1-c1ccccc1)C(c1ccccc1)=CN2	> 20	19	> 20	11	
COc1c(OC)c2c3c(nccc3c1-c1cccc3ccccc13)C=CN2	> 20	> 20	16	18	
COc1ccc(C2=CNc3c(OC)c(OC)c(-c4ccc(OC)cc4)c4ccnc2c34)cc1	> 20	12	5.8	13	
